Columns and labels:
Assay in all cases: relative viability (nuclei count vs DMSO), 5 days (fraction); higher = more cells survive
[1] = test system: BEN
Summary of the method: (§1)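 Relative viability was taken as the ratio of nuclei in treated wells to nuclei in vehicle wells. Lung cancer cell lines in 1536-well plates received compounds by pin tool one day after seeding, either one drug alone or a fixed anchor-drug dose plus five library-drug doses (not always all listed) in √10 steps. Nuclei were counted on 4× images after 5 days of treatment, and values are medians of duplicate plates.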

[2] = test system: EMC-BAC-2
Summary of the method: as §1

[3] = test system: H3255
Summary of the method: as §1

[4] = test system: HOP-62
Summary of the method: as §1

[5] = test system: LCLC-97TM1
Summary of the method: as §1

[6] = test system: LXF-289
Summary of the method: as §1

[7] = test system: NCI-H1650
Summary of the method: as §1

[8] = test system: NCI-H1915
Summary of the method: as §1

[9] = test system: NCI-H1993
Summary of the method: as §1

[10] = test system: NCI-H2009
Summary of the method: as §1

[11] = test system: NCI-H2023
Summary of the method: as §1

[12] = test system: NCI-H2085
Summary of the method: as §1

[13] = test system: NCI-H2126
Summary of the method: as §1

[14] = test system: NCI-H2342
Summary of the method: as §1

[15] = test system: NCI-H2347
Summary of the method: as §1

[16] = test system: NCI-H322M
Summary of the method: as §1

[17] = test system: NCI-H358
Summary of the method: as §1

[18] = test system: NCI-H647
Summary of the method: as §1

[19] = test system: NCI-H661
Summary of the method: as §1

[20] = test system: NCI-H727
Summary of the method: as §1

[21] = test system: PC-14
Summary of the method: as §1

[22] = test system: SK-LU-1
Summary of the method: as §1

[23] = test system: SW 1573
Summary of the method: as §1

For `C[C@@H]1CN(CC(=O)Nc2ccc3c(c2)Cc2cccc(-c4cc(=O)cc(N5CCOCC5)o4)c2S3)C[C@H](C)O1` + O=C(c1cc(Cc2n[nH]c(=O)c3ccccc23)ccc1F)N1CCN(C(=O)C2CC2)CC1 [Olaparib] (partner 8 µM), which relative viability ([1]; first compound 0.04 µM) is on record?
The relative viability was 0.969.

And the relative viability ([1]; first compound 0.1265 µM)?
The relative viability was 1.13.

And the relative viability ([1]; first compound 0.4 µM)?
The relative viability was 1.11.

And the relative viability ([1]; first compound 4 µM)?
The relative viability was 0.69.

What about the relative viability ([2]; first compound 0.04 µM) of the same molecule?
Its relative viability is 0.512.

What about the relative viability ([2]; first compound 0.1265 µM) of the same molecule?
Its relative viability is 0.579.

And the relative viability ([2]; first compound 0.4 µM)?
The relative viability was 0.513.

And the relative viability ([2]; first compound 4 µM)?
Its relative viability is 0.263.

And the relative viability ([3]; first compound 0.04 µM)?
Its relative viability is 0.554.

What about the relative viability ([3]; first compound 0.1265 µM) of the same molecule?
Its relative viability is 0.532.

And the relative viability ([3]; first compound 0.4 µM)?
The relative viability was 0.522.

What about the relative viability ([3]; first compound 4 µM) of the same molecule?
The relative viability was 0.452.

And the relative viability ([4]; first compound 0.04 µM)?
The relative viability was 0.283.

What about the relative viability ([4]; first compound 0.1265 µM) of the same molecule?
The relative viability was 0.442.

What about the relative viability ([4]; first compound 0.4 µM) of the same molecule?
Its relative viability is 0.452.

What about the relative viability ([4]; first compound 4 µM) of the same molecule?
The relative viability was 0.0812.

What about the relative viability ([5]; first compound 0.1265 µM) of the same molecule?
The relative viability was 0.381.

And the relative viability ([5]; first compound 0.4 µM)?
The relative viability was 0.462.

And the relative viability ([5]; first compound 4 µM)?
Its relative viability is 0.37.

And the relative viability ([6]; first compound 0.04 µM)?
The relative viability was 0.998.

What about the relative viability ([6]; first compound 0.1265 µM) of the same molecule?
Its relative viability is 1.1.

And the relative viability ([6]; first compound 0.4 µM)?
Its relative viability is 1.21.

And the relative viability ([6]; first compound 4 µM)?
Its relative viability is 1.05.

What about the relative viability ([7]; first compound 0.04 µM) of the same molecule?
The relative viability was 0.731.

What about the relative viability ([7]; first compound 0.1265 µM) of the same molecule?
Its relative viability is 0.713.

What about the relative viability ([7]; first compound 0.4 µM) of the same molecule?
Its relative viability is 0.967.

What about the relative viability ([7]; first compound 4 µM) of the same molecule?
Its relative viability is 0.282.

And the relative viability ([8]; first compound 0.04 µM)?
Its relative viability is 0.25.

And the relative viability ([8]; first compound 0.1265 µM)?
Its relative viability is 0.248.

What about the relative viability ([8]; first compound 0.4 µM) of the same molecule?
The relative viability was 0.265.

And the relative viability ([8]; first compound 4 µM)?
The relative viability was 0.182.

What about the relative viability ([9]; first compound 0.04 µM) of the same molecule?
Its relative viability is 1.06.

And the relative viability ([9]; first compound 0.1265 µM)?
Its relative viability is 0.963.

What about the relative viability ([9]; first compound 0.4 µM) of the same molecule?
The relative viability was 0.942.

What about the relative viability ([9]; first compound 4 µM) of the same molecule?
Its relative viability is 0.81.

What about the relative viability ([10]; first compound 0.04 µM) of the same molecule?
Its relative viability is 0.71.

And the relative viability ([10]; first compound 0.1265 µM)?
Its relative viability is 0.691.

And the relative viability ([10]; first compound 0.4 µM)?
Its relative viability is 0.649.

What about the relative viability ([10]; first compound 4 µM) of the same molecule?
The relative viability was 0.274.

What about the relative viability ([11]; first compound 0.04 µM) of the same molecule?
The relative viability was 0.441.

And the relative viability ([11]; first compound 0.1265 µM)?
Its relative viability is 0.371.

What about the relative viability ([11]; first compound 0.4 µM) of the same molecule?
Its relative viability is 0.329.

What about the relative viability ([11]; first compound 4 µM) of the same molecule?
Its relative viability is 0.148.

What about the relative viability ([12]; first compound 0.04 µM) of the same molecule?
The relative viability was 0.755.

And the relative viability ([12]; first compound 0.1265 µM)?
The relative viability was 0.786.

And the relative viability ([12]; first compound 0.4 µM)?
The relative viability was 0.781.

What about the relative viability ([12]; first compound 4 µM) of the same molecule?
Its relative viability is 0.345.

And the relative viability ([13]; first compound 0.04 µM)?
Its relative viability is 0.928.

What about the relative viability ([13]; first compound 0.1265 µM) of the same molecule?
Its relative viability is 0.873.

What about the relative viability ([13]; first compound 0.4 µM) of the same molecule?
The relative viability was 0.95.

What about the relative viability ([13]; first compound 4 µM) of the same molecule?
Its relative viability is 0.928.

What about the relative viability ([14]; first compound 0.04 µM) of the same molecule?
Its relative viability is 0.567.

What about the relative viability ([14]; first compound 0.1265 µM) of the same molecule?
The relative viability was 0.52.

And the relative viability ([14]; first compound 0.4 µM)?
The relative viability was 0.52.

What about the relative viability ([14]; first compound 4 µM) of the same molecule?
The relative viability was 0.419.

And the relative viability ([15]; first compound 0.04 µM)?
Its relative viability is 0.636.

And the relative viability ([15]; first compound 0.1265 µM)?
Its relative viability is 0.545.

And the relative viability ([15]; first compound 0.4 µM)?
The relative viability was 0.57.

What about the relative viability ([15]; first compound 4 µM) of the same molecule?
Its relative viability is 0.448.

What about the relative viability ([16]; first compound 0.04 µM) of the same molecule?
Its relative viability is 0.632.

What about the relative viability ([16]; first compound 0.1265 µM) of the same molecule?
The relative viability was 0.794.

What about the relative viability ([16]; first compound 0.4 µM) of the same molecule?
The relative viability was 0.81.

And the relative viability ([16]; first compound 4 µM)?
The relative viability was 0.643.

And the relative viability ([17]; first compound 0.04 µM)?
Its relative viability is 0.654.

What about the relative viability ([17]; first compound 0.1265 µM) of the same molecule?
The relative viability was 0.66.

And the relative viability ([17]; first compound 0.4 µM)?
The relative viability was 0.625.

And the relative viability ([17]; first compound 4 µM)?
Its relative viability is 0.178.

And the relative viability ([18]; first compound 0.04 µM)?
Its relative viability is 0.611.

What about the relative viability ([18]; first compound 0.1265 µM) of the same molecule?
The relative viability was 0.436.

And the relative viability ([18]; first compound 0.4 µM)?
The relative viability was 0.417.

And the relative viability ([18]; first compound 4 µM)?
The relative viability was 0.0936.

And the relative viability ([19]; first compound 0.04 µM)?
Its relative viability is 0.814.

What about the relative viability ([19]; first compound 0.1265 µM) of the same molecule?
The relative viability was 0.77.

What about the relative viability ([19]; first compound 0.4 µM) of the same molecule?
The relative viability was 0.784.

And the relative viability ([19]; first compound 4 µM)?
The relative viability was 0.622.

And the relative viability ([20]; first compound 0.04 µM)?
The relative viability was 0.831.

And the relative viability ([20]; first compound 0.1265 µM)?
The relative viability was 0.77.

And the relative viability ([20]; first compound 0.4 µM)?
The relative viability was 0.835.

And the relative viability ([20]; first compound 4 µM)?
Its relative viability is 0.64.

What about the relative viability ([21]; first compound 0.04 µM) of the same molecule?
Its relative viability is 0.249.

And the relative viability ([21]; first compound 0.1265 µM)?
Its relative viability is 0.169.

And the relative viability ([21]; first compound 0.4 µM)?
The relative viability was 0.205.

What about the relative viability ([21]; first compound 4 µM) of the same molecule?
The relative viability was 0.09.

And the relative viability ([22]; first compound 0.04 µM)?
The relative viability was 0.566.

And the relative viability ([22]; first compound 0.1265 µM)?
The relative viability was 0.667.

What about the relative viability ([22]; first compound 0.4 µM) of the same molecule?
The relative viability was 0.575.

And the relative viability ([22]; first compound 4 µM)?
Its relative viability is 0.219.

And the relative viability ([23]; first compound 0.04 µM)?
The relative viability was 0.553.

And the relative viability ([23]; first compound 0.1265 µM)?
Its relative viability is 0.546.

What about the relative viability ([23]; first compound 0.4 µM) of the same molecule?
The relative viability was 0.495.

What about the relative viability ([23]; first compound 4 µM) of the same molecule?
The relative viability was 0.21.

From the supplement of paper PMC10307832
